Test results: US4740233A, “Substituted 1,2,4-triazolo[1,5-a]-pyrimidine-2-sulfonamides and compositions and methods of controlling undesired vegetation and suppressing the nitrification of ammonium nitrogen in soil” (The Dow Chemical Company, priority 1986, dated 1988)

Legend:
[1] = tested on: crabgrass; assay: Preemergent control of plant species; assay type: in vivo, Digitaria spp.; conditions: Digitaria sanguinalis, pre-emergence, 336 h; 0.25 lb/acre; read-out: percent preemergent control
Summary of the method: (§1)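 Growth reduction relative to untreated plants of the same species, assessed two weeks after treatment, defines the control value. Compositions, mostly aqueous emulsions, were deposited uniformly on seeded greenhouse soil beds at the tabulated rates, with a water-treated bed as reference.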

[2] = tested on: cocklebur; assay: Postemergent control of plant species; assay type: in vivo, Xanthium spp.; conditions: Xanthium strumarium, post-emergence, 336 h, read-out: percent postemergent control
Summary of the method: (§2)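 Foliar spray, 2-4 leaf stage, greenhouse. Formulation: acetone solution (2x final conc.) mixed 1:1 with water + 0.1% surface active agent. ~2 wk hold, watered as needed. Readout = % growth reduction vs untreated same-species controls.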

[3] = tested on: barnyardgrass; assay: Postemergent control of plant species; assay type: in vivo, Echinochloa crusgalli; conditions: Echinochloa crus-galli, post-emergence, 336 h, read-out: percent postemergent control
Summary of the method: as §2

[4] = tested on: sugar beet; assay: Postemergent control of plant species; assay type: in vivo, Beta saccharifera; conditions: Beta vulgaris, post-emergence, 336 h, read-out: percent postemergent control
Summary of the method: as §2

[5] = tested on: wild oats; assay: Postemergent control of plant species; assay type: in vivo, Avena fatua; conditions: Avena fatua, post-emergence, 336 h, read-out: percent postemergent control
Summary of the method: as §2

[6] = tested on: johnson grass; assay: Preemergent control of plant species; assay type: in vivo, Sorghum halepense; conditions: Sorghum halepense, pre-emergence, 336 h; 0.25 lb/acre; read-out: percent preemergent control
Summary of the method: as §1

[7] = tested on: yellow foxtail; assay: Preemergent control of plant species; assay type: in vivo, Setaria lutescens; conditions: Setaria, pre-emergence, 336 h; 0.25 lb/acre; read-out: percent preemergent control
Summary of the method: as §1

[8] = tested on: rape; assay: Preemergent control of plant species; assay type: in vivo, Brassica napus; conditions: Brassica napus, pre-emergence, 336 h; 0.25 lb/acre; read-out: percent preemergent control
Summary of the method: as §1

[9] = tested on: wheat; assay: Preemergent control of plant species; assay type: in vivo, Triticum aestivum; conditions: Triticum aestivum, pre-emergence, 336 h; 0.25 lb/acre; read-out: percent preemergent control
Summary of the method: as §1

[10] = tested on: nitrification of ammonium nitrogen; assay: Suppression of nitrification of ammonium nitrogen in soil; conditions: 27° C.
Summary of the method: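 Soil (20 g) moistened to its 1/3 bar tension value, mixed with test chemical and incubated sealed for two weeks at 27° C. Nitrate extracted with ammonium sulfate solution and measured by nitrate-specific ion electrode; value given as % NH4-N remaining.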

[11] = tested on: crabgrass; assay: Postemergent control of plant species; assay type: in vivo, Digitaria spp.; conditions: Digitaria sanguinalis, post-emergence, 336 h, read-out: percent postemergent control
Summary of the method: as §2

[12] = tested on: yellow nutsedge; assay: Postemergent control of plant species; assay type: in vivo, Cyperus esculentus; conditions: Cyperus, post-emergence, 336 h, read-out: percent postemergent control
Summary of the method: as §2

[13] = tested on: rice; assay: Postemergent control of plant species; assay type: in vivo, Oryza sativa; conditions: Oryza sativa, post-emergence, 336 h, read-out: percent postemergent control
Summary of the method: as §2

[14] = tested on: annual morning glory; assay: Postemergent control of plant species; assay type: in vivo, Ipomoea spp.; conditions: Ipomoea, post-emergence, 336 h, read-out: percent postemergent control
Summary of the method: as §2

[15] = tested on: wild oats; assay: Preemergent control of plant species; assay type: in vivo; conditions: Avena fatua, pre-emergence, 336 h; 0.25 lb/acre; read-out: percent preemergent control
Summary of the method: as §1

[16] = tested on: pigweed; assay: Preemergent control of plant species; assay type: in vivo, Amaranthus spp.; conditions: Amaranthus retroflexus, pre-emergence, 336 h; 0.25 lb/acre; read-out: percent preemergent control
Summary of the method: as §1

[17] = tested on: soybean; assay: Postemergent control of plant species; assay type: in vivo, Glycine max.; conditions: Glycine max, post-emergence, 336 h, read-out: percent postemergent control
Summary of the method: as §2

[18] = tested on: annual morning glory; assay: Preemergent control of plant species; assay type: in vivo, Ipomoea spp.; conditions: Ipomoea, pre-emergence, 336 h; 0.25 lb/acre; read-out: percent preemergent control
Summary of the method: as §1

[19] = tested on: cotton; assay: Preemergent control of plant species; assay type: in vivo, Gossypium spp.; conditions: Gossypium hirsutum, pre-emergence, 336 h; 0.25 lb/acre; read-out: percent preemergent control
Summary of the method: as §1

[20] = tested on: jimsonweed; assay: Preemergent control of plant species; assay type: in vivo, Datura stramonium; conditions: Datura stramonium, pre-emergence, 336 h; 0.25 lb/acre; read-out: percent preemergent control
Summary of the method: as §1

[21] = tested on: rape; assay: Postemergent control of plant species; assay type: in vivo, Brassica napus; conditions: Brassica napus, post-emergence, 336 h, read-out: percent postemergent control
Summary of the method: as §2

[22] = tested on: pigweed; assay: Postemergent control of plant species; assay type: in vivo, Amaranthus spp.; conditions: Amaranthus retroflexus, post-emergence, 336 h, read-out: percent postemergent control
Summary of the method: as §2

[23] = tested on: soybean; assay: Preemergent control of plant species; assay type: in vivo, Glycine max.; conditions: Glycine max, pre-emergence, 336 h; 0.25 lb/acre; read-out: percent preemergent control
Summary of the method: as §1

[24] = tested on: wheat; assay: Postemergent control of plant species; assay type: in vivo, Triticum aestivum; conditions: Triticum aestivum, post-emergence, 336 h, read-out: percent postemergent control
Summary of the method: as §2

| Structure (SMILES) | pest or weed control at 280.212 g/ha [1] [%] | pest or weed control at 500 ppm [3] [%] | plant injury at 500 ppm [4] [%] | pest or weed control at 500 ppm [5] [%] | pest or weed control at 280.212 g/ha [6] [%] | plant injury at 280.212 g/ha [8] [%] | plant injury at 280.212 g/ha [9] [%] | % NH4-N Remaining After 2 Weeks Incubation ([10]; 1 ppm) [%] | pest or weed control at 500 ppm [11] [%] | pest or weed control at 500 ppm [12] [%] | plant injury at 500 ppm [13] [%] | pest or weed control at 500 ppm [14] [%] | plant injury at 500 ppm [17] [%] | pest or weed control at 280.212 g/ha [18] [%] | plant injury at 280.212 g/ha [19] [%] | pest or weed control at 280.212 g/ha [20] [%] | plant injury at 500 ppm [21] [%] | pest or weed control at 500 ppm [22] [%] | plant injury at 280.212 g/ha [23] [%] | plant injury at 500 ppm [24] [%] | other results |
| --- | --- | --- | --- | --- | --- | --- | --- | --- | --- | --- | --- | --- | --- | --- | --- | --- | --- | --- | --- | --- | --- |
| Cc1cc(C)n2nc(S(=O)(=O)Nc3ccccc3[N+](=O)[O-])nc2n1 [Compound 12] | 10 | 80 | 95 | 0 | 80 | 95 | 0 | 87 | 25 | 90 | 25 | 100 | 80 | 50 | 95 | 0 | 100 | 100 | 95 | 0 | pest or weed control at 500 ppm [2]: 100%; pest or weed control at 280.212 g/ha [7]: 0%; % NH4-N Remaining After 2 Weeks Incubation ([10]; 0.06 ppm): 40%; % NH4-N Remaining After 2 Weeks Incubation ([10]; 0.125 ppm): 70%; % NH4-N Remaining After 2 Weeks Incubation ([10]; 0.25 ppm): 74%; % NH4-N Remaining After 2 Weeks Incubation ([10]; 0.5 ppm): 83%; pest or weed control at 280.212 g/ha [15]: 0%; pest or weed control at 280.212 g/ha [16]: 60% |
| CC(=O)N(c1c(Cl)cccc1Cl)S(=O)(=O)c1nc2nc(C)cc(C)n2n1 [Compound 262] | – | 100 | 100 | 0 | 60 | 100 | 0 | 75 | 95 | 80 | 40 | 100 | 95 | 90 | 90 | 100 | 100 | 100 | 100 | 10 | pest or weed control at 280.212 g/ha [7]: 95%; % NH4-N Remaining After 2 Weeks Incubation ([10]; 0.06 ppm): 28%; % NH4-N Remaining After 2 Weeks Incubation ([10]; 0.25 ppm): 49%; % NH4-N Remaining After 2 Weeks Incubation ([10]; 4 ppm): 89%; pest or weed control at 280.212 g/ha [15]: 50% |
| CCc1cccc(CC)c1NS(=O)(=O)c1nc2nc(C)cc(C)n2n1 [Compound 33] | 10 | 0 | 40 | 0 | 0 | 80 | 40 | 77 | 0 | 10 | 0 | 60 | 40 | 0 | 20 | 40 | 60 | 10 | 10 | 0 | pest or weed control at 500 ppm [2]: 60%; pest or weed control at 280.212 g/ha [7]: 0%; % NH4-N Remaining After 2 Weeks Incubation ([10]; 0.01 ppm): 8%; % NH4-N Remaining After 2 Weeks Incubation ([10]; 0.1 ppm): 42%; % NH4-N Remaining After 2 Weeks Incubation ([10]; 10 ppm): 88%; pest or weed control at 280.212 g/ha [15]: 40%; pest or weed control at 280.212 g/ha [16]: 10% |
| Cc1cc(C)n2nc(S(=O)(=O)Nc3ccccc3I)nc2n1 [Compound 6] | 0 | 35 | 90 | 0 | 0 | 100 | 0 | 78 | 20 | 90 | 20 | 80 | 70 | 0 | 70 | 0 | 80 | 30 | 10 | 0 | pest or weed control at 500 ppm [2]: 90%; % NH4-N Remaining After 2 Weeks Incubation ([10]; 0.01 ppm): 15%; % NH4-N Remaining After 2 Weeks Incubation ([10]; 0.1 ppm): 55%; % NH4-N Remaining After 2 Weeks Incubation ([10]; 10 ppm): 87%; pest or weed control at 280.212 g/ha [16]: 100% |
| COC(=O)c1cccc(F)c1NS(=O)(=O)c1nc2nc(C)cc(C)n2n1 [Compound 26] | 100 | 100 | 100 | 0 | 98 | 98 | 0 | 79 | 90 | 90 | 80 | 90 | 95 | 95 | 95 | 100 | 100 | 100 | 98 | 30 | pest or weed control at 500 ppm [2]: 100%; pest or weed control at 280.212 g/ha [7]: 100%; % NH4-N Remaining After 2 Weeks Incubation ([10]; 0.06 ppm): 37%; % NH4-N Remaining After 2 Weeks Incubation ([10]; 0.125 ppm): 45%; % NH4-N Remaining After 2 Weeks Incubation ([10]; 0.25 ppm): 65%; % NH4-N Remaining After 2 Weeks Incubation ([10]; 0.5 ppm): 73%; pest or weed control at 280.212 g/ha [15]: 40%; pest or weed control at 280.212 g/ha [16]: 100% |
| Cc1cc(C)n2nc(S(=O)(=O)Nc3ccc(Cl)cc3C(F)(F)F)nc2n1 [Compound 34] | 0 | 0 | 100 | 0 | 80 | 95 | 0 | 78 | 0 | 60 | 0 | 75 | 90 | 20 | 80 | 0 | 100 | 100 | 80 | 0 | pest or weed control at 500 ppm [2]: 100%; pest or weed control at 280.212 g/ha [7]: 0%; % NH4-N Remaining After 2 Weeks Incubation ([10]; 0.01 ppm): 11%; % NH4-N Remaining After 2 Weeks Incubation ([10]; 0.1 ppm): 51%; % NH4-N Remaining After 2 Weeks Incubation ([10]; 10 ppm): 90%; pest or weed control at 280.212 g/ha [15]: 0%; pest or weed control at 280.212 g/ha [16]: 50% |
